From PMC6630832, “3-Vinylazetidin-2-Ones: Synthesis, Antiproliferative and Tubulin Destabilizing Activity in MCF-7 and MDA-MB-231 Breast Cancer Cells” (Pharmaceuticals, 2019)

Assays:
MCF-7 cells = assay: Cell cycle analysis (PI flow cytometry); format: cell-based, human; conditions: for apoptotic cells (sub-G0G1): 72 h
Protocol: MCF-7 cells (adherent and detached) were treated with the appropriate concentration of compound 7s and incubated for the designated time. Cells were collected, trypsinised and centrifuged at 800× g for 15 min. Cells were washed twice with ice-cold PBS and fixed in ice-cold 70% ethanol overnight at −20 °C. Fixed cells were centrifuged at 800× g for 15 min and stained with 50 μg/mL of PI, containing 50 μg/mL of DNase-free RNase A, at 37 °C for 30 min.

EKVX = assay: NCI60 screen (SRB), Non-Small Cell Lung Cancer; format: cell-based; conditions: Homo sapiens
NCI-H460 = assay: NCI60 screen (SRB), Non-Small Cell Lung Cancer; format: cell-based; conditions: Homo sapiens
HEK-293T cells = assay: Cytotoxicity in non-tumourigenic HEK-293T cells; format: cell-based, human
HOP-92 = assay: NCI60 screen (SRB), Non-Small Cell Lung Cancer; format: cell-based; conditions: Homo sapiens
[1] = Whole blood stability study; format: in vitro ADME; conditions: 37 °C

## COc1ccc(/C=C\c2cc(OC)c(OC)c(OC)c2)cc1O [CA-4, Combretastatin A-4, reference compound]
MCF-7 cells; 100 nM, 48 h
  cells in G2M arrest: 52%
  sub-G0G1 population: 9.4%

## C=CC1C(=O)N(c2cc(OC)c(OC)c(OC)c2)C1c1ccc(OC)cc1 (centres unmarked) [Compound 7h, 4-(4-Methoxyphenyl)-1-(3,4,5-trimethoxyphenyl)-3-vinylazetidin-2-one]
EKVX
  GI50: 58.3 nM
NCI-H460
  GI50: 36 nM

## C=CC1C(=O)N(c2cc(OC)c(OC)c(OC)c2)C1c1ccc(OC)c(O)c1 (centres unmarked) [Compound 7s, 4-[3-Hydroxy-4-methoxyphenyl]-1-(3,4,5-trimethoxyphenyl)-3-vinylazetidin-2-one]
HEK-293T cells
  cytotoxicity against non-tumorigenic HEK-293T cells: minimal cytotoxicity
HEK-293T cells; Homo sapiens, non-tumourigenic HEK-293T cells
  IC50: > 5000 nM
MCF-7 cells; 10 nM, 24 h
  cells in G2M arrest: 64%
MCF-7 cells; 10 nM
  apoptotic cells (sub-G0G1): 14%
MCF-7 cells; 100 nM, 24 h
  cells in G2M arrest: 82%
MCF-7 cells; 100 nM
  apoptotic cells (sub-G0G1): 26%

## C=CC1C(=O)N(c2cc(OC)c(OC)c(OC)c2)C1c1ccc(OC)c(N)c1 (centres unmarked) [Compound 7t, 4-(3-Amino-4-methoxyphenyl)-1-(3,4,5-trimethoxyphenyl)-3-vinylazetidin-2-one]
HOP-92
  GI50: 39.3 nM
NCI-H460
  GI50: 35.5 nM

## C=CC1C(=O)N(c2cc(OC)c(OC)c(OC)c2)C1c1ccc(OC)c(OP(=O)(O)O)c1 (centres unmarked) [Compound 17b, 2-Methoxy-5-(1-(3,4,5-trimethoxyphenyl)-4-oxo-3-vinylazetidin-2-yl)phenyl dihydrogen phosphate]
[1]
  remaining after 6 h: 62%

## CCC1C(=O)N(c2cc(OC)c(OC)c(OC)c2)C1c1ccc(OC)c(OP(=O)(O)O)c1 (centres unmarked) [Compound 17c, 5-(3-Ethyl-1-(3,4,5-trimethoxyphenyl)-4-oxoazetidin-2-yl)-2-methoxyphenyl dihydrogen phosphate]
[1]
  remaining after 6 h: 34%
